Values after ≈ are worked out from the molar mass of the structure shown.
What was measured:
[1] = system: Gram positive bacteria (SA and MRSA strains); assay: Antimicrobial effect on Gram positive bacteria (Table 8); assay type: cell-based; set-up: key to antimicrobial effect on Gram positive bacteria: MIC (concentration giving 99% inhibition), concentrations in μg; settings: compound alone
Method: MIC experiments of the antimicrobial agents were determined by a modified broth microdilution method in accordance with the Clinical and Laboratory Standards Institute (CLSI) guidelines using 96 well culture plates. In brief, serial dilutions of all plates were prepared at different concentrations (μg). The inoculum suspension was prepared by adding isolated colonies from a 18-20 hours on TSA plate into phosphate buffer (0.31 mM, pH 7.2) or in water for injection (BBraun) and adjusting the suspension to a turbidity equivalent to 0.5 McFarland Standard. Each well contained a final bacterial concentration of approximately 5×10^5 colony forming units (CFU)/mL. The plate was covered and incubated at 35° C. for 24 hours. […] For the microdilution plates, turbidity in wells can be measured at OD600 using TECAN infinite M200Pro. MIC was determined as […] concentration that gives a 99 percent inhibition.
The antimicrobial activity of the inventive combination was also tested against Gram positive bacteria, including the multi-drug resistant strains, such as MRSA. […] This means the combination of LC100/LC101 with colistin has broad antimicrobial spectrum, being active against both Gram positive and Gram negative bacteria.

[2] = system: colistin resistant MCR (+) E. Coli strains; assay: MIC, broth microdilution, compound alone; assay type: cell-based; settings: compound alone
Outline: (§1)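 Wells held ~5×10^5 CFU/mL of bacteria prepared to 0.5 McFarland from overnight TSA colonies and exposed to serially diluted agents, following modified CLSI microdilution. After 24 h at 35 °C, growth judged by turbidity (OD600 possible); 99% inhibition sets the MIC.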

[3] = system: colistin resistant MCR (−) E. Coli strains; assay: MIC, broth microdilution, compound alone; assay type: cell-based
Outline: as §1

[4] = system: colistin resistant MCR (−) E. Cloacae strain 7023456439; assay: MIC, broth microdilution, compound alone; assay type: cell-based; settings: strain 7023456439 E. Cloacae
Outline: as §1

[5] = Calcein leakage from large unilamellar vesicles; settings: vesicles of 100 nm, DOPE/DOPG=3/1
Source text: FIG. 20 refers to a graph showing calcein leakage of LC100 and LC101 using large unilamellar vesicles of 100 nm. The lipid composition of the vesicle is DOPE/DOPG=3/1, mimicking the bacterial inner membrane. […] Further increase of LC100 or LC101 leads to decrease in the florescence because of a fluorescence quenching effect.

[6] = system: colistin resistant MCR (+) E. Coli strains; assay: Synergy study: colistin MIC in the presence of compound; assay type: cell-based; settings: against mcr-1 bacteria; in words
Outline: (§2)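 After 24 hours, MIC was read as the lowest concentration without visible growth. Drugs were tested singly and in combination by CLSI broth microdilution, equal-amount colistin:LC compound mixtures serially diluted 2-fold at a fixed synergy concentration.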

[7] = system: colistin resistant MCR (−) E. Coli strains; assay: as above; assay type: cell-based; settings: compound at 10 μg (Table 2a: 10 ug/ml)
Outline: as §2

[8] = system: colistin resistant MCR (−) E. Cloacae strain 7023456439; assay: as above; assay type: cell-based; settings: strain 7023456439 E. Cloacae, compound at 10 μg (Table 2a: 10 ug/ml)
Outline: as §2

[9] = system: 6083655967 [MCR 1+; E.Coli]; assay: Synergistic study between LC100 or LC101 with B2088; assay type: cell-based; settings: for Combination MIC: strain 6083655967, value of each component
Method: The MICs of the individual drugs and LC compound in combinations were determined using the broth microdilution technique as recommended by the CLSI whereby the two anti-microbial agents were added in an equal amount. (e.g.: 50 μL of Colistin: 50 μL of LC compounds). Diluted media containing compounds and antibiotics will be serially diluted 2-fold, and LC compounds and antibiotics alone or in combination will be assayed at fixed synergy concentration. In all cases, the lowest concentration at which no visible growth occurred was be recorded to be the MIC value of individual and combined antibacterial agents. The results were obtained after 24 hours of incubation.
Using the combination of LC100 and colistin, the activity of a broad range of strains was further tested (Table 7).

## COC(=O)C(CCCNC(=N)N)NC(=O)COc1ccc(/C=C/C(=O)c2ccc(OCC(=O)NC(CCCNC(=N)N)C(=O)OC)c(CC=C(C)C)c2O)cc1 (stereo not drawn) [LC101]
[1]; in words
  activity against Gram positive strains: good activity
[1]; strain MRSA ATCC 43300
  antimicrobial effect on Gram positive bacteria: 6.25
[1]; strain MRSA ATCC 700699
  antimicrobial effect on Gram positive bacteria: 6.25
[1]; strain MRSA DM 21455
  antimicrobial effect on Gram positive bacteria: 3.125
[1]; strain SA ATCC 6538
  antimicrobial effect on Gram positive bacteria: 3.125
[1]; strain SA ATCC 29213
  antimicrobial effect on Gram positive bacteria: 3.125
[1]; strain SA DM 4400R
  antimicrobial effect on Gram positive bacteria: 3.125
[2]; strain 6075066346, MCR (+)
  MIC: 25 µg/mL (≈ 32 µM)
[2]; strain 6083655967, MCR (+)
  MIC: 25 µg/mL (≈ 32 µM)
[2]; strain 6103645107, MCR (+)
  MIC: 25 µg/mL (≈ 32 µM)
[2]; strain 6123520276, MCR (+)
  MIC: 50 µg/mL (≈ 64 µM)
[2]; strain 7013177695, MCR (+)
  MIC: 25 µg/mL (≈ 32 µM)
[2]; strain 7023436560, MCR (+)
  MIC: 25 µg/mL (≈ 32 µM)
[2]; strain 7023444207, MCR (+)
  MIC: 25 µg/mL (≈ 32 µM)
[3]; strain 6083672926, MCR (−)
  MIC: 25 µg/mL (≈ 32 µM)
[3]; strain 7023446108, MCR (−)
  MIC: 25 µg/mL (≈ 32 µM)
[3]; strain 7033607097, MCR (−)
  MIC: 50 µg/mL (≈ 64 µM)
[4]
  MIC: >50 µg/mL
[5]
  calcein leakage / disruption of vesicles: significant florescence was detected
[6]
  synergy with colistin: excellent synergy
[7]; strain 6083672926, MCR(−)
  Colistin MIC in the presence of the compound: <0.195 µg/mL
[7]; strain 7023446108, MCR(−)
  Colistin MIC in the presence of the compound: <0.195 µg/mL
[7]; strain 7033607097, MCR(−)
  Colistin MIC in the presence of the compound: <0.195 µg/mL
[8]
  Colistin MIC in the presence of the compound: >12.5 µg/mL
[9]; combination B2088 (Ac) + LC 101
  Combination MIC: 2 µg/mL
[9]; combination B2088 + LC 101
  Combination MIC: 2 µg/mL
[9]; killing E. coli with the mcr-1 mutation
  level of synergistic effect with B2088: 1 µg/mL

Source: patent publication US12473250B2, “Molecular design of new antibiotics and antibiotic adjuvants against MCR strains” (priority 2019, dated 2025)
